Assay results: patent publication US12465605B2, “Methods and materials for gender-dependent treatment of cardiovascular dysfunction” (Mayo Foundation for Medical Education and Research, priority 2019, dated 2025)

Legend:
Type in all cases: cell-based
[1] = test system: Osterix (BMP target gene); test: Osterix mRNA in aortic valve interstitial cells treated with sGC agonists; conditions: for Osterix expression: 24 hours
Description: (§1) In vitro cell culture studies: Aortic valve interstitial cells were isolated using an outgrowth method, and were expanded in DMEM/F-10 medium with 10% FBS and studied in passages 2-10. Cells were treated for 24 hours under each experimental condition, at which point mRNA was harvested using lysis buffer. After mRNA isolation and reverse transcription, gene expression was measured using quantitative real-time RT-PCR and Taqman primers. Changes in gene expression were assessed by the ddCt method and expressed as fold-change normalized to control conditions.
In vitro studies were conducted in aortic valve interstitial cells to determine the effects of several sGC agonists on mRNA levels of Osterix, a BMP target gene. Cells were treated with nelociguat, vericiguat, lificiguat, or BAY41-8543, and Osterix mRNA levels were determined. Nelociguat and BAY41-8543 were used at concentrations ranging from 1 nM to 10 μM, while vericiguat and lificiguat were used at concentrations ranging from 1 nM to 1 μM.

sGC = target: T1, sGC (Mus musculus, UniProt O54865); test: sGC signaling (phospho-VASP239) in mouse aortic valve interstitial cells; conditions: otherwise naïve mVICs, vs vehicle-treated cells
T1 construct: endogenous in cells; host or cells: primary mouse aortic valve interstitial cells (mVICs) from C57BL6/J mice
T1 sequence (O54865 1-620): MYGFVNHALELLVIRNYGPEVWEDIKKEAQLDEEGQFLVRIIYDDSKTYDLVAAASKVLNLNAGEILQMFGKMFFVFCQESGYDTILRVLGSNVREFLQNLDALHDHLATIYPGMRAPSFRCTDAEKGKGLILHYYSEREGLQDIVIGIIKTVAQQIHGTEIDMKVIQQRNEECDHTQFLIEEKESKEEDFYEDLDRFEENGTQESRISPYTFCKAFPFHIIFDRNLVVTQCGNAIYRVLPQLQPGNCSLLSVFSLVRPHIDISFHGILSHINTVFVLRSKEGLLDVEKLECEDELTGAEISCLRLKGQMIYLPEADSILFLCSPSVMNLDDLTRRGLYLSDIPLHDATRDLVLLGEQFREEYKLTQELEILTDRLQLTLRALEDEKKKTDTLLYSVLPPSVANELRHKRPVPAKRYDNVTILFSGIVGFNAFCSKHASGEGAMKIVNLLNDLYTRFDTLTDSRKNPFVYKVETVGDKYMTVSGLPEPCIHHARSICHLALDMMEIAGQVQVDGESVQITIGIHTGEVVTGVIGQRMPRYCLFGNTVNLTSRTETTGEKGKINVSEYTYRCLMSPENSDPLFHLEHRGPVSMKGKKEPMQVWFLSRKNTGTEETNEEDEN
T1 sequence (Q9ERL9 1-691 partner): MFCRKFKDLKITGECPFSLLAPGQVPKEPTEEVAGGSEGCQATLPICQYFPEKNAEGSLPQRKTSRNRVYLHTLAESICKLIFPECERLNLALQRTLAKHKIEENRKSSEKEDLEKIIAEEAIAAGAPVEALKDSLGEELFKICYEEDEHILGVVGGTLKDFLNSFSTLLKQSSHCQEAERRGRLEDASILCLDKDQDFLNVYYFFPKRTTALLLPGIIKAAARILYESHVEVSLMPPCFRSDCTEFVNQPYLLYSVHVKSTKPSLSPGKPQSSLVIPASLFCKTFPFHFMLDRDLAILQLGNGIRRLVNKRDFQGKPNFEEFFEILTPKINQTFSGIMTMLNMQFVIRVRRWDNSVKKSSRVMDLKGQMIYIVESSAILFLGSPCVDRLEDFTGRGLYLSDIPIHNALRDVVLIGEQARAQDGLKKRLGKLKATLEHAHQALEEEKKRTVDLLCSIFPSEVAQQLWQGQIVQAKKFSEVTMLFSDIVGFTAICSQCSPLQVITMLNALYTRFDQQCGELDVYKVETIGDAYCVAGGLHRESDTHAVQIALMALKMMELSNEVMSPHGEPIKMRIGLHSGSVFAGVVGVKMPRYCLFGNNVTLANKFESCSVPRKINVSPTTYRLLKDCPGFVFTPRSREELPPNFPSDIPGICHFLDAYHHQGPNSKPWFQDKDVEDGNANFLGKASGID
Description: To confirm that ataciguat effectively activated sGC in cells, mouse aortic valve interstitial cells (mVICs) were isolated from C57BL6/J mice treated with ataciguat or other sGC agonists as internal controls. […] To determine whether ataciguat could attenuate signaling cascades central to the initiation and progression of valve calcification in vitro, cells were treated with BMP2 with or without ataciguat. In these studies, ataciguat reduced phospho-SMAD1/5/8 signaling (e.g., canonical BMP signaling) as well as expression of osteogenic genes induced by BMP2 (e.g., osterix).

[2] = test system: LPA-induced BMP signaling; test: LPA-induced BMP signaling (Osterix mRNA) in aortic valve interstitial cells; conditions: treatment with 18:0 lyso-PA alone
Description: as §1
Additional studies were conducted in aortic valve interstitial cells to examine the effects of ataciguat on LPA-induced BMP signaling and BMP target gene expression. Cells were treated with 18:0 lyso-PA, with or without ataciguat, and Osterix mRNA levels were determined.

## Nc1nc(-c2nn(Cc3ccccc3F)c3ncccc23)nc(N)c1N1CCOCC1 [BAY41-8543, 2-[1-[(2-fluorophenyl)methyl]-1H-pyrazolo[3,4-b]pyridin-3-yl]-5-(4-morpholinyl)-4,6-pyrimidinediamine]
[1]; at 10 μM
  Osterix expression: highly efficacious
[1]; tested 1 nM to 10 μM
  Osterix expression: dose-dependent reductions

## CCN(CC)/[N+]([O-])=N/O.CCNCC [DEA-NONOATE]
sGC
  sGC-dependent signaling (phospho-VASP^239 levels): increased phospho-VASP^239 levels to a similar extent

## OCc1ccc(-c2nn(Cc3ccccc3)c3ccccc23)o1 [lificiguat]
[1]; tested 1 nM to 1 μM
  Osterix expression: lose efficacy at higher concentrations

## COC(=O)Nc1c(N)nc(-c2nn(Cc3ccccc3F)c3ncccc23)nc1N [nelociguat, methyl (4,6-diamino-2-(1-(2-fluorobenzyl)-1H-pyrazolo[3,4-b]pyridin-3-yl)pyrimidin-5-yl)carbamate]
[1]; suggested from loss of effect at the highest concentration
  concentration that may be cytotoxic: ≥ 10 µM

## COC(=O)Nc1c(N)nc(-c2nn(Cc3ccccc3F)c3ncc(F)cc23)nc1N [vericiguat, methyl (4,6-diamino-2-(5-fluoro-1-(2-fluorobenzyl)-1H-pyrazolo[3,4-b]pyridin-3-yl)pyrimidin-5-yl)carbamate]
[1]; tested 1 nM to 1 μM
  Osterix expression: only at the highest dose tested

## lysophosphatidic acid [18:0 lyso-PA]
[2]
  expression of Osterix: increased expression
